This note sets out measurements from ChEMBL document CHEMBL3124884, “Leporizines A-C: epithiodiketopiperazines isolated from an Aspergillus species” (J Nat Prod, 2013).

The source made the active and inactive calls. The rule behind the calls is not given here.

For data set [1], the system named is Cystic fibrosis transmembrane conductance regulator (Homo sapiens), P13569 [F508del]. The experiment in a line: Activity at CFTR F508del mutant (unknown origin) expressed in Fischer rat thyroid epithelial cells co-expressing YFP-H148Q/I152L assessed as forskolin/PG-01-induced increase in conductance reversible effect at 10 to 20 uM after 16 to 20 mins by conductance corrector assay in presence of CFInh-172. In kind it is cell-based. The settings on record: Epithelial cell.
Chain of Cystic fibrosis transmembrane conductance regulator (Homo sapiens), P13569 [F508del] (P13569 as listed by the source): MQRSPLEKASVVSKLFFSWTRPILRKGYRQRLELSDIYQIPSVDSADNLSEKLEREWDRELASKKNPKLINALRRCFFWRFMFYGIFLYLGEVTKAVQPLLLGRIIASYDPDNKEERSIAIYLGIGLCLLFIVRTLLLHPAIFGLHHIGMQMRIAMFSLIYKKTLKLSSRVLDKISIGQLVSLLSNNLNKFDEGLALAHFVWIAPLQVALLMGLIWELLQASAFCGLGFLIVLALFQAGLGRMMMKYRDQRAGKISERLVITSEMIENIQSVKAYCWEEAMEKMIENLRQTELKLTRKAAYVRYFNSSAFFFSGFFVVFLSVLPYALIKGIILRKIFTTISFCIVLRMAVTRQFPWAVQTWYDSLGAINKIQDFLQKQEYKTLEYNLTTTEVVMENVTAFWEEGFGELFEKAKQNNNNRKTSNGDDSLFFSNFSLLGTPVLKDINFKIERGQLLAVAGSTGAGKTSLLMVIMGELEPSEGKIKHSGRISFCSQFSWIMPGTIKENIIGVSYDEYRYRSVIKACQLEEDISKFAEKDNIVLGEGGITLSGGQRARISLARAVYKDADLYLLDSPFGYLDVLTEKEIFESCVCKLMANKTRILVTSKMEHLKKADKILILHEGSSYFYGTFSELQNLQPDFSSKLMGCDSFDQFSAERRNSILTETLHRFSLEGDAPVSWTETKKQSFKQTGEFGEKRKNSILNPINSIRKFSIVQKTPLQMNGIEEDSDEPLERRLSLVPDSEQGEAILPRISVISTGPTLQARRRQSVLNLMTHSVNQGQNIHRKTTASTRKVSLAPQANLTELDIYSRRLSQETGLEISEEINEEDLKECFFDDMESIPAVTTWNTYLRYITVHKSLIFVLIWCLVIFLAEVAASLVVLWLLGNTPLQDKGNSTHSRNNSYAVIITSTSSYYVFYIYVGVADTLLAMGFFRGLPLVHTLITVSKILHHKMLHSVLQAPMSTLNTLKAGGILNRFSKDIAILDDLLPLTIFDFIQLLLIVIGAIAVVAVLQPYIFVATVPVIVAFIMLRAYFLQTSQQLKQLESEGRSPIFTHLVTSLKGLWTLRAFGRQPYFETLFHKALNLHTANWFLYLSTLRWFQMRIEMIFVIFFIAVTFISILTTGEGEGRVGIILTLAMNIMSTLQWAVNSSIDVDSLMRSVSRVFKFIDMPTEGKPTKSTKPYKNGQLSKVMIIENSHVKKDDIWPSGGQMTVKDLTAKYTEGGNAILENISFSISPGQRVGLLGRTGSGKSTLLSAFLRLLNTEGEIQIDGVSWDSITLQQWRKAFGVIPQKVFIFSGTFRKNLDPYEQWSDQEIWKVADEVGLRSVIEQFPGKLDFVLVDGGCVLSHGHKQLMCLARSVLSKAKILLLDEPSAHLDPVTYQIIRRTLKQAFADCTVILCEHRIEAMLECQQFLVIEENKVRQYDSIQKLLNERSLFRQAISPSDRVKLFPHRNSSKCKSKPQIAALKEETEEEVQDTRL

A further data set has as its system HepG2. As to the kind of experiment: Cytotoxicity against human HepG2 cells. In kind it is cell-based.
The subject of data set [2] is Cystic fibrosis transmembrane conductance regulator (Homo sapiens), P13569 [F508del]. As to the kind of experiment: Activity at CFTR F508del mutant (unknown origin) expressed in Fischer rat thyroid epithelial cells co-expressing YFP-H148Q/I152L assessed as loss of baseline transepithelial resistance at >5 uM after 16 to 20 mins by conductance corrector assay. In kind it is cell-based. Conditions: Epithelial cell.

Data set [3] shares this test system. The experiment in a line: Activity at CFTR F508del mutant (unknown origin) expressed in Fischer rat thyroid epithelial cells co-expressing YFP-H148Q/I152L assessed as forskolin/PG-01-induced increase in conductance reversible effect at >5 uM after 16 to 20 mins by conductance corrector assay. The format is cell-based. Conditions: Epithelial cell.
Data set [4] has the same test system. As to the kind of experiment: Activity at CFTR F508del mutant (unknown origin) expressed in Fischer rat thyroid epithelial cells co-expressing YFP-H148Q/I152L assessed as forskolin/PG-01-induced increase in conductance reversible effect at <= 5 uM after 16 to 20 hrs by conductance corrector assay. The settings on record: Epithelial cell.
For data set [5] the test system is unchanged. As to the kind of experiment: Activity at CFTR F508del mutant (unknown origin) expressed in Fischer rat thyroid epithelial cells co-expressing YFP-H148Q/I152L assessed as loss of baseline transepithelial resistance at 2.5 to 20 uM after 16 to 20 mins by conductance corrector assay. In kind it is cell-based. The settings on record: Epithelial cell.
Data set [6] has the same test system. The experiment in a line: Activity at CFTR F508del mutant (unknown origin) expressed in Fischer rat thyroid epithelial cells co-expressing YFP-H148Q/I152L assessed as forskolin/PG-01-induced increase in conductance reversible effect at 2.5 to 20 uM after 16 to 20 mins by conductance corrector assay. The settings on record: Epithelial cell. The format is cell-based.

For data set [7] the test system is unchanged. The experiment in a line: Activity at CFTR F508del mutant (unknown origin) expressed in Fischer rat thyroid epithelial cells co-expressing YFP-H148Q/I152L assessed as loss of baseline transepithelial resistance at 10 uM after 16 to 20 mins by conductance corrector assay. The format is cell-based. The settings on record: Epithelial cell.

Consider `C[C@@H]1OC2=C(C(=O)C3(O)C(C2)N2C(=O)[C@@]45SSS[C@@]2(C(=O)N4[C@H]2Nc4ccccc4C2(O)[C@H]5O)[C@@H]3O)C1(C)C` (some centres undefined), for which the outcome in data set [1], in data set [2] and in data set [3] was Active. For the same compound, the Activity result with HepG2 is “Toxic”. Also, in data set [4], the result was inactive.
Take `C[C@@H]1OC2=C(C(=O)C3(O)C(C2)N2C(=O)[C@@]45SS[C@@]2(C(=O)N4[C@H]2Nc4ccccc4C2(O)[C@H]5O)[C@@H]3O)C1(C)C` (some centres undefined): the outcome in data set [1], in data set [2] and in data set [3] was Active. Besides, the Activity result with HepG2 is “Toxic”. For the same compound, the result in data set [4] was inactive.
For the compound `CS[C@]12C(=O)N3[C@H]4Nc5ccccc5C4(O)[C@@H](O)[C@@]3(SC)C(=O)N1C1CC3=C(C(=O)C1(O)[C@H]2O)C(C)(C)[C@H](C)O3` (some centres undefined), the result in data set [5] and in data set [6] was inactive. For the same compound, the Activity result in the data set with HepG2 is “Non-toxic”.
Turning to `COc1ccc(Cl)cc1Nc1nc(-c2sc(NC(=O)C(C)(C)C)nc2C)cs1`, the result in data set [7] was Active.
